Measured values from US20050090396A1, “Herbicides based on substituted carboxylic acid anilides” (priority 2001, published 2005).

Tests used:
[1] = tested on: Hordeum vulgare (winter barley); experiment: Post-emergence test/greenhouse, damage to winter barley (HORVW); format: in vivo
Method: (§1) Post-Emergence Test/Greenhouse
Test plants are grown under controlled conditions (temperature and light).
(§2) Following the spray application, the plant containers are kept in the greenhouse under constant light and temperature conditions.
(§3) After five days (5d) and/or three weeks (21d), the degree of damage to the plants is rated in % damage in comparison to the development of the untreated control.

[2] = tested on: Triticum aestivum (winter wheat); experiment: Post-emergence test/greenhouse, damage to winter wheat (TRZAW); format: in vivo
Method: as §1
Test plants are grown under controlled conditions (temperature and light). Once the plants have reached a height of 5 to 15 cm, the test compound or the combination of test compounds is applied by spraying such that the particular amounts of active compound desired are applied per unit area. The concentration of the spray liquor is chosen so that the particular amounts of active compound desired are applied in 500 litres of water/ha.
as §2, §3
• 0%=no effect (like untreated control) • 100%=total destruction.
Unless indicated otherwise, the tests were carried out in the presence of 0.5% Renex 36. • a.i. denotes “active ingredient” (active compound). • HORVW denotes Hordeum vulgare (winter barley).
TRZAW denotes Triticum aestivum (winter wheat).

[3] = 50 g of ai/ha, without addition of Renex 36

With `CCS(=O)(=O)N(C(=O)CCc1cccc(OC)c1)c1cc(-n2c(=O)cc(C(F)(F)F)n(C)c2=O)c(F)cc1C#N` [Ex. I-24] the “degree of damage to the plants, HORVW 5d” value ([1]; 15 g of ai/ha, 0.5% Renex 36) was 40%, the “degree of damage to the plants, HORVW 5d” value ([1]; 30 g of ai/ha, 0.5% Renex 36) was 60% and the “degree of damage to the plants, HORVW 5d” value ([1]; 60 g of ai/ha, 0.5% Renex 36) was 70%.
For `CCS(=O)(=O)N(C(=O)CC(C)c1ccccc1)c1cc(-n2ncc(=O)n(C)c2=O)c(F)cc1C#N` (stereo not shown) [Ex. I-40], the “degree of damage to the plants, HORVW 5d” value ([1]; 60 g of ai/ha, 0.5% Renex 36) was 30%, the “degree of damage to the plants, HORVW 21d” value (from here on “degree of damage … HORVW 21d”) ([1]; 60 g of ai/ha, 0.5% Renex 36) was 20% and the “degree of damage to the plants, TRZAW 5d” value ([2]; 60 g of ai/ha, 0.5% Renex 36) was 20%.
For `CCOC(=O)C1=NOC(c2ccccc2)(c2ccccc2)C1` [isoxadifen, ethyl 4,5-dihydro-5,5-diphenyl-3-isoxazolecarboxylate, reference compound], the “degree of damage to the plants, HORVW 5d” value ([1]; 50 g of ai/ha, 0.5% Renex 36) was 0%, the “degree of damage to the plants, HORVW 5d” value [1, 3] was 0% and the “degree of damage … HORVW 21d” value ([1]; 50 g of ai/ha, 0.5% Renex 36) was 0%. For the same molecule, the “degree of damage … HORVW 21d” value [1, 3] was 0%, the “degree of damage to the plants, TRZAW 5d” value ([2]; 50 g of ai/ha, 0.5% Renex 36) was 0% and the “degree of damage to the plants, TRZAW 5d” value [2, 3] was 0%. The “degree of damage to the plants, TRZAW 21d” value (shortened to “degree of damage … TRZAW 21d”) ([2]; 50 g of ai/ha, 0.5% Renex 36) was 0%.
In the case of `CCS(=O)(=O)N(C(=O)CCc1ccc(Cl)c(Cl)c1)c1cc(-n2c(=O)cc(C(F)(F)F)n(C)c2=O)c(F)cc1C#N` [Ex. I-2], the “degree of damage to the plants, HORVW 5d” value ([1]; 30 g of ai/ha, 0.5% Renex 36) is reported as 40% and the “degree of damage to the plants, HORVW 5d” value ([1]; 60 g of ai/ha, 0.5% Renex 36) is reported as 60%.
For `CCS(=O)(=O)N(C(=O)C(C)=Cc1ccccc1)c1cc(-n2c(=O)cc(C(F)(F)F)n(C)c2=O)c(F)cc1C#N` [Ex. I-29], the “degree of damage to the plants, HORVW 5d” value ([1]; 15 g of ai/ha, 0.5% Renex 36) was 10%.
`CCS(=O)(=O)N(C(=O)CCc1cccc(Cl)c1)c1cc(-n2c(=O)cc(C(F)(F)F)n(C)c2=O)c(F)cc1C#N` [Ex. I-33] was tested, and the “degree of damage to the plants, HORVW 5d” value ([1]; 60 g of ai/ha, 0.5% Renex 36) was 40%, the “degree of damage … HORVW 21d” value ([1]; 30 g of ai/ha, 0.5% Renex 36) was 15% and the “degree of damage … HORVW 21d” value ([1]; 60 g of ai/ha, 0.5% Renex 36) was 20%. For the same molecule, the “degree of damage to the plants, TRZAW 5d” value ([2]; 60 g of ai/ha, 0.5% Renex 36) was 25%, the “degree of damage … TRZAW 21d” value ([2]; 30 g of ai/ha, 0.5% Renex 36) was 10% and the “degree of damage … TRZAW 21d” value ([2]; 60 g of ai/ha, 0.5% Renex 36) was 15%.
`CCS(=O)(=O)N(C(=O)CCc1ccc(F)c(F)c1)c1cc(-n2ncc(=O)n(C)c2=O)c(F)cc1C#N` [Ex. I-42] was tested, and the “degree of damage to the plants, HORVW 5d” value ([1]; 15 g of ai/ha, 0.5% Renex 36) was 15%, the “degree of damage to the plants, HORVW 5d” value ([1]; 30 g of ai/ha, 0.5% Renex 36) was 20% and the “degree of damage to the plants, HORVW 5d” value ([1]; 60 g of ai/ha, 0.5% Renex 36) was 30%. For the same molecule, the “degree of damage … HORVW 21d” value ([1]; 60 g of ai/ha, 0.5% Renex 36) was 20%.
For `Cn1c(C(F)(F)F)cc(=O)n(-c2cc(N(C(=O)C=Cc3ccccc3Cl)S(C)(=O)=O)c(C#N)cc2F)c1=O` [Ex. I-32], the “degree of damage to the plants, HORVW 5d” value ([1]; 30 g of ai/ha, 0.5% Renex 36) was 25% and the “degree of damage to the plants, HORVW 5d” value ([1]; 60 g of ai/ha, 0.5% Renex 36) was 40%.
`CCS(=O)(=O)N(C(=O)COc1ccc(Cl)cc1Cl)c1cc(-n2c(=O)cc(C(F)(F)F)n(C)c2=O)c(F)cc1C#N` [Ex. I-1] was tested, and the “degree of damage … HORVW 21d” value ([1]; 30 g of ai/ha, 0.5% Renex 36) was 20% and the “degree of damage … HORVW 21d” value ([1]; 60 g of ai/ha, 0.5% Renex 36) was 40%.
With `CCS(=O)(=O)N(C(=O)CCc1ccc(F)cc1F)c1cc(-n2ncc(=O)n(C)c2=O)c(F)cc1C#N` [Ex. I-43] the “degree of damage … HORVW 21d” value ([1]; 15 g of ai/ha, without addition of Renex 36) was 10%, the “degree of damage to the plants, TRZAW 5d” value ([2]; 15 g of ai/ha, 0.5% Renex 36) was 15% and the “degree of damage to the plants, TRZAW 5d” value ([2]; 30 g of ai/ha, 0.5% Renex 36) was 15%.
`CCS(=O)(=O)N(C(=O)CCc1ccc(Cl)c(Cl)c1)c1cc(-n2ncc(=O)n(C)c2=O)c(F)cc1C#N` [Ex. I-14] was tested, and the “degree of damage to the plants, HORVW 5d” value ([1]; 60 g of ai/ha, 0.5% Renex 36) was 30% and the “degree of damage to the plants, TRZAW 5d” value ([2]; 60 g of ai/ha, 0.5% Renex 36) was 20%.
`CCS(=O)(=O)N(C(=O)CCc1cccc(OC)c1)c1cc(-n2ncc(=O)n(C)c2=O)c(F)cc1C#N` [Ex. I-41] was tested, and the “degree of damage to the plants, HORVW 5d” value ([1]; 15 g of ai/ha, 0.5% Renex 36) was 20% and the “degree of damage to the plants, HORVW 5d” value ([1]; 30 g of ai/ha, 0.5% Renex 36) was 25%.
With `CCS(=O)(=O)N(C(=O)C=Cc1ccccc1Cl)c1cc(-n2c(=O)cc(C(F)(F)F)n(C)c2=O)c(F)cc1C#N` [Ex. I-31] the “degree of damage to the plants, HORVW 5d” value ([1]; 15 g of ai/ha, 0.5% Renex 36) was 30%, the “degree of damage to the plants, HORVW 5d” value ([1]; 30 g of ai/ha, 0.5% Renex 36) was 40% and the “degree of damage to the plants, HORVW 5d” value ([1]; 60 g of ai/ha, 0.5% Renex 36) was 50%. The “degree of damage to the plants, TRZAW 5d” value ([2]; 30 g of ai/ha, 0.5% Renex 36) was 20% and the “degree of damage to the plants, TRZAW 5d” value ([2]; 60 g of ai/ha, 0.5% Renex 36) was 20%.
For `CCOC(=O)C1=NN(c2ccc(Cl)cc2Cl)C(C)(C(=O)OCC)C1` (stereo not shown) [mefenpyr-diethyl, diethyl 1-(2,4-dichlorophenyl)-4,5-dihydro-5-methyl-1H-pyrazole-3,5-dicarboxylate, reference compound], the “degree of damage to the plants, HORVW 5d” value ([1]; 50 g of ai/ha, 0.5% Renex 36) was 0%, the “degree of damage … HORVW 21d” value ([1]; 50 g of ai/ha, 0.5% Renex 36) was 0% and the “degree of damage to the plants, TRZAW 5d” value ([2]; 50 g of ai/ha, 0.5% Renex 36) was 0%. For the same molecule, the “degree of damage … TRZAW 21d” value ([2]; 50 g of ai/ha, 0.5% Renex 36) was 0%.
With `Cn1c(C(F)(F)F)cc(=O)n(-c2cc(N(C(=O)CCc3ccc(F)c(F)c3)S(C)(=O)=O)c(C#N)cc2F)c1=O` [Ex. I-26] the “degree of damage … HORVW 21d” value ([1]; 15 g of ai/ha, 0.5% Renex 36) was 10%, the “degree of damage … HORVW 21d” value ([1]; 30 g of ai/ha, 0.5% Renex 36) was 20% and the “degree of damage … HORVW 21d” value ([1]; 60 g of ai/ha, 0.5% Renex 36) was 40%. For the same molecule, the “degree of damage … TRZAW 21d” value ([2]; 30 g of ai/ha, 0.5% Renex 36) was 20% and the “degree of damage … TRZAW 21d” value ([2]; 60 g of ai/ha, 0.5% Renex 36) was 30%.
For `CCCCCC(C)OC(=O)COc1ccc(Cl)c2cccnc12` (stereo not shown) [cloquintocet-mexyl, 1-methylhexyl 5-chloroquinolin-8-oxyacetate, reference compound], the “degree of damage to the plants, HORVW 5d” value ([1]; 50 g of ai/ha, 0.5% Renex 36) was 0%, the “degree of damage to the plants, HORVW 5d” value [1, 3] was 0% and the “degree of damage … HORVW 21d” value ([1]; 50 g of ai/ha, 0.5% Renex 36) was 0%. The “degree of damage … HORVW 21d” value [1, 3] was 0%, the “degree of damage to the plants, TRZAW 5d” value ([2]; 50 g of ai/ha, 0.5% Renex 36) was 0% and the “degree of damage to the plants, TRZAW 5d” value [2, 3] was 0%. For the same molecule, the “degree of damage … TRZAW 21d” value ([2]; 50 g of ai/ha, 0.5% Renex 36) was 0%.
